The source of these data is patent publication US11780845B2 (Relay Therapeutics, Inc., priority 2019, dated 2023).

What is called IC50 is the concentration at which inhibition is half-maximal. Low readings indicate greater potency in that assay, high ones weaker potency in that assay.

One test deals with FGFR2 (Homo sapiens (Human), UniProt P21802). Nature of the test: Biochemical FGFR2 Caliper assay.
The next test deals with SNU-16. Nature of the test: Cell SNU-16 assay. The test is classed as cell-based.
Where [1] appears, read: Homo sapiens, SNU-16, SNU-16 cells.

Chain of FGFR2 (P21802 22-821): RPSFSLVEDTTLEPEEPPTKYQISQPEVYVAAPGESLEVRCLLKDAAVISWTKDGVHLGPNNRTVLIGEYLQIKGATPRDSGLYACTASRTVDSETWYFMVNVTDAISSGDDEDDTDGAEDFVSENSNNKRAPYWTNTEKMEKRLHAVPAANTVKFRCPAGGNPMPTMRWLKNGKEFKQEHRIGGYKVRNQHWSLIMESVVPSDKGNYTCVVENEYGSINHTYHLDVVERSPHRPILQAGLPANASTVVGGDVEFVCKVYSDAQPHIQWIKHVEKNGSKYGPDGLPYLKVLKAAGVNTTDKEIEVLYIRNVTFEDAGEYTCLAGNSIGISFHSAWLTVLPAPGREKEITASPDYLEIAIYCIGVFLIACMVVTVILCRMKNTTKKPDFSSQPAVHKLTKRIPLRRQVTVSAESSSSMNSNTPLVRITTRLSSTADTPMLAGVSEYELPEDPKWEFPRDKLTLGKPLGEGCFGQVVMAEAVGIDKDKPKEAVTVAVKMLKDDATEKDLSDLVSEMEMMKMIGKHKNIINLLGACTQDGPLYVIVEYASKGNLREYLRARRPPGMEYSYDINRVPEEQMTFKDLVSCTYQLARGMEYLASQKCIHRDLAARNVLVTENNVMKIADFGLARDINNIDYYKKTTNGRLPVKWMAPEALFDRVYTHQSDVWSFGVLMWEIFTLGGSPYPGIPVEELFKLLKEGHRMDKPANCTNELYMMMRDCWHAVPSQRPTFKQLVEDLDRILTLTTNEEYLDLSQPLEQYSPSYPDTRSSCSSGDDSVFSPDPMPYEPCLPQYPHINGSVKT

`C#Cc1cc(OC)c(-c2c(-c3ccc(Oc4nccc(C)n4)c(F)c3)c3c(C)ncnc3n2C)c(C)n1` (atropisomer, axis not shown) [Example 1459]: the figures for the IC50 at FGFR2 and with SNU-16 (SNU-16 cells) were less than 0.1 µM and not above 0.1 µM, respectively.
For `C=CC(=O)N1CCC(n2cc(-c3c(-c4ccc(C(=O)N5CC6CC5C6)cc4)c4c(N)ncnc4n3C)cn2)CC1` [Example 848], the IC50 against FGFR2 and with SNU-16 (setting [1]) was 0.1 to 0.25 µM throughout.
Consider `C=C(C)C(=O)Nc1ccc(-c2c(-c3ccc(O)c(F)c3)c3c(N)ncnc3n2C)cc1` [Example 1437], for which the results for the IC50 against FGFR2 and with SNU-16 (setting [1]) were 0.25 to 1 µM and 1 to 100 µM, respectively.
For `C=CC(=O)N[C@H]1C[C@H]1c1c(-c2ccc(C(=O)N3CCCC3)cc2)c2c(N)ncnc2n1C` (single isomer, unassigned) [Example 975], in that order: 1 to 100 µM and 1 to 100 µM.
On to `C=CC(=O)N1CC=C(c2c(-c3ccc(Oc4cccc(C)n4)cc3)c3c(N)ncnc3n2C)[C@H]1C` (single isomer, unassigned) [Example 932], for which the IC50 against FGFR2 is 0.1 to 0.25 µM; in the test on SNU-16 (setting [1]), 0.25 to 1 µM.
For `C#Cc1ncc(-c2c(-c3ccc(Oc4nccc(C)n4)c(F)c3)c3c(N)ncnc3n2C)c(C)c1OC` [Example 1353], the IC50 on FGFR2 is less than 0.1 µM; with SNU-16 (setting [1]), not above 0.1 µM.
For `C#Cc1cc(C)c(-c2c(-c3ccc(Oc4nccc(C)n4)c(F)c3)c3c(C(F)F)ncnc3n2C)cn1` [Example 1432], in that order: 1 to 100 µM and 1 to 100 µM.
For `C=C1CCN(c2ccc(-c3c(-c4ccc(Oc5nccc(C)n5)cc4)c4c(N)ncnc4n3C)cn2)C1=O` [Example 1077], in that order: less than 0.1 µM and not above 0.1 µM.
For `C#Cc1cc(C)c(-c2c(-c3ccc(Oc4nccc(C)n4)c(F)c3)c3c(N)ncnc3n2C)c(F)n1` [Example 1322], in that order: less than 0.1 µM and not above 0.1 µM.
Take `C#Cc1cc2c(cn1)-c1c(-c3ccc(Oc4nccc(C)n4)c(F)c3)c3c(N)ncnc3n1C[C@H](C)O2` [Example 1455]: the IC50 on FGFR2 is less than 0.1 µM; with SNU-16 (setting [1]), not above 0.1 µM.
For `C=C(C)C(=O)Nc1ccc(-c2c(-c3cnn(-c4ccccc4)c3)c3c(N)ncnc3n2C)cc1` [Example 1281], in that order: 1 to 100 µM and 0.25 to 1 µM.
For `C=CC(=O)N1CCC(N)(c2c(-c3ccc(Oc4cccc(C)n4)cc3)c3c(N)ncnc3n2C)C1` (centres unmarked) [Example 850], in that order: 1 to 100 µM and 1 to 100 µM.
For `C#Cc1cc(C)c(-c2c(-c3cnn(C)c3)c3c(N)ncnc3n2C)cn1` [Example 1144], in that order: 0.1 to 0.25 µM and not above 0.1 µM.
Turning to `C#Cc1ccc(-c2c(-c3ccc(Oc4nccc(C)n4)c(F)c3)c3c(N)ncnc3n2C)c(C)n1` [Example 1168], the IC50 at FGFR2 was less than 0.1 µM; with SNU-16 (setting [1]), 1 to 100 µM.
For `C=CC(=O)N1CC=C(c2c(C3=CC[C@H](C(=O)N4CCCC4)CC3)c3c(N)ncnc3n2C)C1` (single isomer, unassigned) [Example 871], in that order: 0.25 to 1 µM and 0.25 to 1 µM.
For `C=CC(=O)N1CC(c2c(-c3ccc(Oc4cccc(C)n4)cc3)c3c(N)ncnc3n2C)C[C@@H]1C` (some centres unmarked) [Example 839], in that order: less than 0.1 µM and not above 0.1 µM.
For `C=Cc1ncc(-c2ccc(-c3c(-c4ccc(Oc5nccc(C)n5)cc4)c4c(N)ncnc4n3C)cc2)o1` [Example 947], in that order: less than 0.1 µM and not above 0.1 µM.
Consider `C#Cc1ncc(-c2c(-c3ccc(C(=O)N4CCC[C@@H]4C#C)cc3)c3c(N)ncnc3n2C)c(C)n1` [Example 1182], for which the IC50 at FGFR2 is less than 0.1 µM; with SNU-16 (setting [1]) it was not above 0.1 µM.
Take `C=CC(=O)N[C@H]1Cc2ccc(-c3c(-c4ccc(Oc5nccc(C)n5)cc4)c4c(N)ncnc4n3C)cc2C1` (single isomer, unassigned) [Example 928]: the IC50 at FGFR2 and with SNU-16 (setting [1]) was 0.25 to 1 µM throughout.
Consider `C#Cc1cc(OC)c(-c2c(-c3ccc(C(=O)NCC4(F)CCC4)c(OC)c3)c3c(C)ncnc3n2C)cn1` [Example 1457], for which the values for the IC50 at FGFR2 and in the test with SNU-16 (setting [1]) were 0.1 to 0.25 µM and not above 0.1 µM, respectively.
For `C=CC(=O)Nc1ccc(-c2c(-c3cc4ccccc4[nH]3)c3c(N)ncnc3n2C)cc1` [Example 1138], in that order: less than 0.1 µM and not above 0.1 µM.
For `C#Cc1ccc(-c2c(-c3ccc(Oc4nccc(C)n4)cc3F)c3c(N)ncnc3n2C)c(C)n1` [Example 1197], in that order: less than 0.1 µM and not above 0.1 µM.
For `C#Cc1cc(C)c(-c2c(-c3ccc(C(=O)N4CCC[C@H]4C#C)cc3)c3c(N)ncnc3n2C)cn1` [Example 1185], in that order: less than 0.1 µM and not above 0.1 µM.
For the compound `C#Cc1ccc(-c2c(-c3ccc(Oc4nccc(C)n4)c(F)c3)c3c(N)ncnc3n2C)c(F)n1` [Example 1200], the half-maximal inhibitory concentration (IC50) on FGFR2 and with SNU-16 (setting [1]) was 1 to 100 µM throughout.
Turning to `C=C(C)C(=O)Nc1ccc(-c2c(-c3ccc4nc[nH]c4c3)c3c(N)ncnc3n2C)cc1` [Example 1294], the IC50 against FGFR2 lay within 0.25 to 1 µM; in the test with SNU-16 (setting [1]) it was 1 to 100 µM.
For `C#Cc1ncc(-c2ccc(-c3c(-c4ccc(Oc5nccc(C)n5)cc4)c4c(N)ncnc4n3C)cc2)o1` [Example 1052], in that order: 1 to 100 µM and 1 to 100 µM.
For `C#Cc1cc(C)c(-c2c(C3=CC[C@@]4(CC3)Cc3ccc(C)nc3C4=O)c3c(N)ncnc3n2C)cn1` [Example 1394], in that order: 0.1 to 0.25 µM and 0.1 to 0.25 µM.
Regarding `C#Cc1cc(CO)c(-c2c(-c3ccc(Oc4nccc(C)n4)c(F)c3)c3c(N)ncnc3n2C)cn1` [Example 1228], the half-inhibitory concentration (IC50) on FGFR2 is less than 0.1 µM; in the test on SNU-16 (setting [1]), not above 0.1 µM.
Consider `[2H]C#Cc1cc(C)c(-c2c(-c3ccc(Oc4nccc(C)n4)c(F)c3)c3c(N)ncnc3n2C)cn1` [Example 1431], for which the IC50 against FGFR2 was less than 0.1 µM; with SNU-16 (setting [1]), not above 0.1 µM.
For `C=C(C)C(=O)Nc1ccc(-c2[nH]c3ncnc(N)c3c2-c2ccc(Oc3ncc(F)cn3)c(F)c2)cc1` [Example 815], in that order: 0.25 to 1 µM and 1 to 100 µM.
For `CN(C)C/C=C/C(=O)Nc1ccc(-c2c(C3=CC[C@@H](C(=O)N4CCCC4)CC3)c3c(N)ncnc3n2C)cc1` (single isomer, unassigned) [Example 1036], in that order: 0.25 to 1 µM and not above 0.1 µM.
For `C=C(C)C(=O)Nc1ccc(-c2c(-c3ccc4c(c3)OC[C@@H]4c3cccc(C)n3)c3c(N)ncnc3n2C)cc1` (single isomer, unassigned) [Example 919], in that order: 0.1 to 0.25 µM and 1 to 100 µM.
In the case of `C=C(C)C(=O)Nc1cc(-c2c(-c3ccc(Oc4nccc(C)n4)c(F)c3)c3c(N)ncnc3n2C)n(C)n1` [Example 1161], the IC50 was less than 0.1 µM against FGFR2 and not above 0.1 µM in the test with SNU-16 (setting [1]).
For `C#Cc1cc(C)c(-c2c(-c3ccc(Oc4nccc(C)n4)c(F)c3)c3c(N)ncnc3n2CCO)cn1` [Example 1245], in that order: less than 0.1 µM and not above 0.1 µM.
For `C=C(C)C(=O)Nc1cc(C)c(-c2c(C3=CC[C@H](C(=O)N4CCCC4)CC3)c3c(N)ncnc3n2C)c(F)c1` [Example 1482], in that order: less than 0.1 µM and not above 0.1 µM.
As to `C#Cc1cnc2cc(-c3c(-c4ccc(Oc5nccc(C)n5)c(F)c4)c4c(C)ncnc4n3C)ccc2n1` [Example 1408], the figures for the IC50 against FGFR2 and in the test with SNU-16 (setting [1]) were less than 0.1 µM and 0.1 to 0.25 µM, respectively.
For `C=CC(=O)N1CC(F)C(c2c(-c3ccc(Oc4cccc(C)n4)cc3)c3c(N)ncnc3n2C)C1` (centres unmarked) [Example 813], in that order: 0.25 to 1 µM and 0.25 to 1 µM.
For `C#Cc1cnc(-c2c(-c3ccc(Oc4nccc(C)n4)c(F)c3)c3c(N)ncnc3n2C)c(CN(C)C)c1` [Example 1314], the IC50 is 0.1 to 0.25 µM against FGFR2 and not above 0.1 µM in the test with SNU-16 (setting [1]).
For `C#CCCCCn1c(-c2ccc(NC(=O)C(=C)C)cc2)c(-c2ccc(Oc3nccc(C)n3)c(F)c2)c2c(N)ncnc21` [Example 1007], in that order: less than 0.1 µM and not above 0.1 µM.
For `Cc1ccnc(Oc2ccc(-c3c(-c4ccc(N5C(=O)C=CC5=O)cc4)n(C)c4ncnc(N)c34)cc2)n1` [Example 1084], in that order: less than 0.1 µM and not above 0.1 µM.
For `C#Cc1cc2c(cn1)-c1c(-c3ccc(Oc4nccc(C)n4)c(F)c3)c3c(N)ncnc3n1CCC2` [Example 1477], in that order: less than 0.1 µM and not above 0.1 µM.
As for `Cn1c([C@@H]2CCN(C#N)C2)c(-c2ccc(C(=O)N3CCCC3)cc2)c2c(N)ncnc21` (single isomer, unassigned) [Example 860], the IC50 at FGFR2 was less than 0.1 µM; in the test on SNU-16 (setting [1]), 0.25 to 1 µM.
For `C=C(C)c1ccc(-c2c(-c3ccc4nn[nH]c4c3)c3c(N)ncnc3n2C)cn1` [Example 1407], in that order: 0.25 to 1 µM and 0.25 to 1 µM.
For `C=C(C)C(=O)Nc1ccc(-c2c(C3=CC[C@H](C(=O)N4CCC[C@@H]4C)CC3)c3c(N)ncnc3n2C)cc1` [Example 991], in that order: less than 0.1 µM and not above 0.1 µM.
Take `C#Cc1cc(C)c(-c2c(C3=CC[C@H](C(=O)N4CCC[C@H]4C)CC3)c3c(N)ncnc3n2C)c(F)n1` (atropisomer, axis not shown) [Example 1348]: the IC50 was 0.1 to 0.25 µM at FGFR2 and not above 0.1 µM in the test on SNU-16 (SNU-16 cells).
As to `C#Cc1ncc(-c2c(-c3ccc(Oc4nccc(C)n4)cc3)c3c(N)ncnc3n2C)c(C)c1F` [Example 1164], the IC50 against FGFR2 was less than 0.1 µM; in the test on SNU-16 (setting [1]) it was not above 0.1 µM.
For `C#Cc1cc(C)c(-c2c(C3=CC[C@@H](C(=O)N4CCC[C@H]4C)CC3)c3c(N)ncnc3n2C)c(F)n1` [Example 1347], in that order: less than 0.1 µM and not above 0.1 µM.
In the case of `C=C(C)C(=O)Nc1ccc(-c2c(N3CC[C@H](C(=O)N4CCCC4)CC3=O)c3c(N)ncnc3n2C)cc1` (single isomer, unassigned) [Example 926], the IC50 against FGFR2 and in the test on SNU-16 (setting [1]) was 1 to 100 µM throughout.
As for `C=C(C)C(=O)Nc1ccc(-c2cn3ncnc(N)c3c2-c2ccc(C(=O)N3CCCCC3)cc2)cc1` [Example 821], the IC50 against FGFR2 and in the test on SNU-16 (setting [1]) was 1 to 100 µM throughout.
